From patent publication US6613747B2, “6-O-carbamoyl ketolide antibacterials” (Ortho-McNeil Pharmaceutical, Inc., priority 2000, dated 2003)
≈ marks a conversion by molar mass, not a printed value.

What was measured:
Experiment in all cases: MIC, microdilution broth method (NCCLS)
Assay type in all cases: cell-based
[1] = test system: E. coli OC2605; conditions: A: E. coli OC2605, 35° C., 16-20 hours
Protocol: (§1) Minimal inhibitory concentration (MIC) has been an indicator of in vitro antibacterial activity widely used in the art. The in vitro antimicrobial activity of the compounds was determined by the microdilution broth method following the test method from the National Committee for Clinical Laboratory Standards (NCCLS). This method is described in the NCCLS Document M7-A4, Vol. 17, No. 2, “Methods for Dilution Antimicrobial Susceptibility Test for Bacteria that Grow Aerobically—Fourth Edition”, which is incorporated herein by reference.
(§2) In this method two-fold serial dilutions of drug in cation adjusted Mueller-Hinton broth are added to wells in microdilution trays. The test organisms are prepared by adjusting the turbidity of actively growing broth cultures so that the final concentration of test organism after it is added to the wells is approximately 5×10^4 CFU/well.
(§3) Following inoculation of the microdilution trays, the trays are incubated at 35° C. for 16-20 hours and then read. […] The amount of growth in the wells containing the test compound is compared with the amount of growth in the growth-control wells (no test compound) used in each tray. As set forth in Table 1, compounds of the present invention were tested against a variety of Gram positive and Gram negative pathogenic bacteria resulting in a range of activities depending on the organism tested.

[2] = test system: E. faecalis ATCC29212; conditions: C: E. faecalis ATCC29212, 35° C., 16-20 hours
Protocol: as §1, §2, §3

[3] = test system: S. pneumoniae ATCC49619; conditions: D: S. pneumoniae ATCC49619, 35° C., 16-20 hours
Protocol: as §1, §2, §3

[4] = test system: S. aureus ATCC29213; conditions: B: S. aureus ATCC29213, 35° C., 16-20 hours
Protocol: as §1, §2, §3

[5] = test system: H. influenzae ATCC49247; conditions: E: H. influenzae ATCC49247, 35° C., 16-20 hours
Protocol: as §1, §2, §3

Row | Structure (SMILES) | MIC [1] | MIC [2] | MIC [3] | MIC [4] | MIC [5]
1 | CC[C@H]1OC(=O)[C@H](C)C(=O)[C@H](C)[C@@H](O[C@@H]2O[C@H](C)C[C@H](N(C)C)[C@H]2O)[C@](C)(OC(=O)NCc2ccc(-n3ccnc3)cc2)C[C@@H](C)C(=O)[C@H](C)[C@H]2NC(=O)O[C@@]21C [Compound 8] | 16 µg/mL (≈ 20.1 µM) | 0.12 µg/mL (≈ 0.15 µM) | 0.03 µg/mL (≈ 0.0376 µM) | 1 µg/mL (≈ 1.25 µM) | 4 µg/mL (≈ 5.01 µM)
2 | CC[C@H]1OC(=O)[C@H](C)C(=O)[C@H](C)[C@@H](O[C@@H]2O[C@H](C)C[C@H](N(C)C)[C@H]2O)[C@](C)(OC(=O)NCCCCc2ccccc2)C[C@@H](C)C(=O)[C@H](C)[C@H]2NC(=O)O[C@@]21C [Compound 9] | >16 µg/mL | 0.25 µg/mL (≈ 0.323 µM) | 0.03 µg/mL (≈ 0.0388 µM) | 1 µg/mL (≈ 1.29 µM) | 16 µg/mL (≈ 20.7 µM)
3 | CC[C@H]1OC(=O)[C@H](C)C(=O)[C@H](C)[C@@H](O[C@@H]2O[C@H](C)C[C@H](N(C)C)[C@H]2O)[C@](C)(OC(=O)NCc2ccc(-n3cncn3)cc2)C[C@@H](C)C(=O)[C@H](C)[C@H]2NC(=O)O[C@@]21C [Compound 10] | 16 µg/mL (≈ 20 µM) | 0.25 µg/mL (≈ 0.313 µM) | 0.03 µg/mL (≈ 0.0375 µM) | 1 µg/mL (≈ 1.25 µM) | 4 µg/mL (≈ 5.01 µM)
4 | CC[C@H]1OC(=O)[C@H](C)C(=O)[C@H](C)[C@@H](O[C@@H]2O[C@H](C)C[C@H](N(C)C)[C@H]2O)[C@](C)(OC(=O)N(CC#Cc2ccccc2)CC#Cc2ccccc2)C[C@@H](C)C(=O)[C@H](C)[C@H]2NC(=O)O[C@@]21C [Compound 11] | >16 µg/mL | 2 µg/mL (≈ 2.3 µM) | 0.5 µg/mL (≈ 0.575 µM) | 4 µg/mL (≈ 4.6 µM) | >16 µg/mL
5 | CC[C@H]1OC(=O)[C@H](C)C(=O)[C@H](C)[C@@H](O[C@@H]2O[C@H](C)C[C@H](N(C)C)[C@H]2O)[C@](C)(OC(=O)NCCCc2cccnc2)C[C@@H](C)C(=O)[C@H](C)[C@H]2NC(=O)O[C@@]21C [Compound 12] | 16 µg/mL (≈ 21 µM) | 0.12 µg/mL (≈ 0.158 µM) | 0.06 µg/mL (≈ 0.0789 µM) | 1 µg/mL (≈ 1.31 µM) | 4 µg/mL (≈ 5.26 µM)
6 | CC[C@H]1OC(=O)[C@H](C)C(=O)[C@H](C)[C@@H](O[C@@H]2O[C@H](C)C[C@H](N(C)C)[C@H]2O)[C@](C)(OC(=O)NCC#Cc2ccccc2)C[C@@H](C)C(=O)[C@H](C)[C@H]2NC(=O)O[C@@]21C [Compound 13] | >16 µg/mL | 0.25 µg/mL (≈ 0.331 µM) | 0.06 µg/mL (≈ 0.0794 µM) | 1 µg/mL (≈ 1.32 µM) | 8 µg/mL (≈ 10.6 µM)
7 | CC[C@H]1OC(=O)[C@H](C)C(=O)[C@H](C)[C@@H](O[C@@H]2O[C@H](C)C[C@H](N(C)C)[C@H]2O)[C@](C)(OC(=O)NCCCc2ccc(N(C)C)cc2)C[C@@H](C)C(=O)[C@H](C)[C@H]2NC(=O)O[C@@]21C [Compound 14] | >16 µg/mL | 0.5 µg/mL (≈ 0.623 µM) | 0.12 µg/mL (≈ 0.149 µM) | 8 µg/mL (≈ 9.96 µM) | >16 µg/mL
8 | CC[C@H]1OC(=O)[C@H](C)C(=O)[C@H](C)[C@@H](O[C@@H]2O[C@H](C)C[C@H](N(C)C)[C@H]2O)[C@](C)(OC(=O)NC/C=C/c2ccc([N+](=O)[O-])cc2)C[C@@H](C)C(=O)[C@H](C)[C@H]2NC(=O)O[C@@]21C [Compound 15] | 4 µg/mL (≈ 4.98 µM) | 0.06 µg/mL (≈ 0.0747 µM) | 0.03 µg/mL (≈ 0.0374 µM) | 0.12 µg/mL (≈ 0.149 µM) | 2 µg/mL (≈ 2.49 µM)
9 | CC[C@H]1OC(=O)[C@H](C)C(=O)[C@H](C)[C@@H](O[C@@H]2O[C@H](C)C[C@H](N(C)C)[C@H]2O)[C@](C)(OC(=O)NC/C=C/c2ccc(Br)cc2)C[C@@H](C)C(=O)[C@H](C)[C@H]2NC(=O)O[C@@]21C [Compound 16] | 8 µg/mL (≈ 9.56 µM) | 0.12 µg/mL (≈ 0.143 µM) | 0.03 µg/mL (≈ 0.0359 µM) | 0.5 µg/mL (≈ 0.598 µM) | 4 µg/mL (≈ 4.78 µM)
10 | CC[C@H]1OC(=O)[C@H](C)C(=O)[C@H](C)[C@@H](O[C@@H]2O[C@H](C)C[C@H](N(C)C)[C@H]2O)[C@](C)(OC(=O)NC/C=C/c2ccc(-n3cccn3)cc2)C[C@@H](C)C(=O)[C@H](C)[C@H]2NC(=O)O[C@@]21C [Compound 18] | 16 µg/mL (≈ 19.4 µM) | 0.06 µg/mL (≈ 0.0728 µM) | 0.03 µg/mL (≈ 0.0364 µM) | 0.25 µg/mL (≈ 0.303 µM) | 4 µg/mL (≈ 4.85 µM)
